# Results reported in patent US20150105252A1, “SUBSTITUTED PYRAZOLES AS HERBICIDES” (E I DU PONT DE NEMOURS AND COMPANY, priority 2013, published 2015).
# How the values were obtained:
# [1] = test system: crabgrass, large; assay: Test A postemergence; format: in vivo, Digitaria sanguinalis
# Outline: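 After sowing in a sand–loam mix, pots received compound preemergence by directed soil spray, or postemergence once plants reached the one- to two-leaf stage (2–10 cm). Formulation contained surfactant in a non-phytotoxic solvent. Injury was scored visually after ~10 greenhouse days, 0–100 scale.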
# [2] = test system: barnyardgrass; assay: Test B flood; format: in vivo, Echinochloa crus-galli; conditions: 250 g ai/ha, visual rating on 0 to 100 scale (0 no effect, 100 complete control), 13 to 15 days
# Outline: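 Visual ratings (0 = no effect, 100 = complete control) versus untreated controls were taken 13–15 days after treatment of greenhouse plants. Treatment was added to paddy water held at 3 cm depth on 2-leaf-stage seedlings.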
# [3] = test system: velvetleaf; assay: Test C preemergence; format: in vivo, Abutilon theophrasti; conditions: for Plant response rating (scale of 0 to 100), Velvetleaf: 250 g ai/ha
# Outline: (§1)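 Pre- and postemergence greenhouse screen; vehicle was a non-phytotoxic solvent mix with surfactant. Preemergence: treatment applied right after sowing into loam and sand. Postemergence: treated at 1–4 leaves. Visual rating at 13–15 days, 100 = complete control.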
# [4] = test system: wheat; assay: Test C postemergence; format: in vivo, Triticum aestivum; conditions: for Plant response rating (scale of 0 to 100 where 0 is no effect and 100 is complete control), Wheat: 31 g ai/ha, visually evaluated after 13 to 15 days; for Wheat plant response rating / Plant response rating, Wheat: postemergence; for Wheat plant response rating: 62 g ai/ha, scale 0 to 100
# Outline: as §1
# [5] = test system: corn; assay: Test C postemergence; format: in vivo, Zea mays; conditions: for Corn plant response rating: scale 0 to 100
# Outline: as §1
# [6] = test system: foxtail, giant; assay: Test C postemergence; format: in vivo, Setaria faberii; conditions: for Plant response rating (scale of 0 to 100 where 0 is no effect and 100 is complete control), Foxtail, Giant: visually evaluated after 13 to 15 days; for Foxtail, Giant plant response rating: scale 0 to 100
# Outline: as §1
# [7] = test system: lambsquarters; assay: Test C postemergence; format: in vivo, Chenopodium album; conditions: for Plant response rating (scale of 0 to 100 where 0 is no effect and 100 is complete control), Lambsquarters: visually evaluated after 13 to 15 days; for Lambsquarters plant response rating: scale 0 to 100
# Outline: as §1
# [8] = test system: barnyardgrass; assay: Test C postemergence; format: in vivo, Echinochloa crus-galli; conditions: for Plant response rating (scale of 0 to 100 where 0 is no effect and 100 is complete control), Barnyardgrass: visually evaluated after 13 to 15 days; for Barnyardgrass plant response rating: scale 0 to 100
# From the text: Seeds of plant species selected from blackgrass (Alopecurus myosuroides), ryegrass, Italian (Italian ryegrass, Lolium multiflorum), wheat (winter wheat, Triticum aestivum), galium (catchweed bedstraw, Galium aparine), corn (Zea mays), crabgrass, large (large crabgrass, Digitaria sanguinalis), foxtail, giant (giant foxtail, Setaria faberii), johnsongrass (Sorghum halepense), lambsquarters (Chenopodium album), morningglory (Ipomoea coccinea), nutsedge, yellow (yellow nutsedge, Cyperus esculentus), pigweed (redroot pigweed, Amaranthus retroflexus), ragweed (common ragweed, Ambrosia elation), soybean (Glycine max), barnyardgrass (Echinochloa crus-galli), oilseed rape (Brassica napus), waterhemp (common waterhemp, Amaranthus rudis), oat, wild (wild oat, Avena fatua), kochia (Kochia scoparia), Surinam grass (Brachiaria decumbens), foxtail, green (green foxtail, Setaria viridis), goosegrass (Eleusine indica), bromegrass, downy (downy bromegrass, Bromus tectorum), nightshade (eastern black nightshade, Solanum ptycanthum), cocklebur (common cocklebur, Xanthium strumarium), cupgrass, woolly (woolly cupgrass, Eriochloa villosa), bermudagrass (Cynodon dactylon), sunflower, (common oilseed sunflower, Helianthus annuus), Russian thistle (Salsola kali), and velvetleaf (Abutilon theophrasti) were planted into a blend of loam soil and sand and treated preemergence with test chemicals formulated in a non-phytotoxic solvent mixture which included a surfactant.
# At the same time, plants selected from these crop and weed species and also chickweed (common chickweed, Stellaria media), canarygrass (littleseed canarygrass, Phalaris minor), and deadnettle (henbit deadnettle, Lamium amplexicaule), were planted in pots containing Redi-Earth® planting medium (Scotts Company, 14111 Scottslawn Road, Marysville, Ohio 43041) comprising spaghnum peat moss, vermiculite, wetting agent and starter nutrients and treated with postemergence applications of test chemicals formulated in the same manner. Plants ranged in height from 2 to 18 cm (1- to 4-leaf stage) for postemergence treatments. Treated plants and controls were maintained in a greenhouse for 13 to 15 days, after which time all species were compared to controls and visually evaluated. Plant response ratings, summarized in Table C, are based on a scale of 0 to 100 where 0 is no effect and 100 is complete control. A dash (-) response means no test result.
# [9] = test system: kochia; assay: Test C postemergence; format: in vivo, Kochia scoparia; conditions: for Plant response rating (scale of 0 to 100 where 0 is no effect and 100 is complete control), Kochia: visually evaluated after 13 to 15 days; for Kochia plant response rating: scale 0 to 100
# Outline: as §1
# [10] = test system: chickweed; assay: Test C postemergence; format: in vivo, Stellaria media; conditions: for Plant response rating (scale of 0 to 100 where 0 is no effect and 100 is complete control), Chickweed: visually evaluated after 13 to 15 days; for Chickweed plant response rating: scale 0 to 100
# Outline: as §1
# [11] = test system: morningglory; assay: Test C postemergence; format: in vivo, Ipomoea coccinea; conditions: for Morningglory plant response rating: scale 0 to 100
# Outline: as §1
# [12] = Postemergence, 500 g ai/ha, visual rating after approx. 10 days, 0 to 100 scale (0 no effect, 100 complete control)
# [13] = postemergence, 125 g ai/ha, about 10 days, visual rating on 0 to 100 scale (0 no effect, 100 complete control)
# [14] = preemergence, 125 g ai/ha, scale 0 to 100, 0 is no effect, 100 is complete control
# [15] = 250 g ai/ha, scale 0 to 100 (0 no effect, 100 complete control)
# [16] = 125 g ai/ha, scale 0 to 100, 0 no effect, 100 complete control
# [17] = postemergence, 250 g ai/ha, scale 0 to 100 (0 no effect, 100 complete control)
# [18] = postemergence, 125 g ai/ha, scale 0 to 100, 0 no effect, 100 complete control
# [19] = preemergence, 31 g ai/ha, scale 0 to 100 (0 no effect, 100 complete control), 13 to 15 days
# [20] = preemergence, 62 g ai/ha, 13 to 15 days, scale 0 to 100, 0 = no effect, 100 = complete control
# [21] = Postemergence, 31 g ai/ha, visually evaluated after 13 to 15 days
SMILES,"Crabgrass, Large plant response rating [1, 12]","Crabgrass, Large plant response rating [1, 13]","Plant response rating, Barnyardgrass [2]","Plant response rating (scale of 0 to 100), Velvetleaf ([3]; Preemergence)","Velvetleaf plant response rating [3, 14]","Plant response rating (scale of 0 to 100 where 0 is no effect and 100 is complete control), Wheat ([4]; Postemergence)",Wheat plant response rating [4],"Plant response rating, Wheat [4, 16]","Corn plant response rating ([5]; postemergence, 62 g ai/ha)","Plant response rating, Corn [5, 18]","Foxtail, Giant plant response rating ([6]; postemergence, 62 g ai/ha)","Plant response rating, Foxtail, Giant [6, 18]","Lambsquarters plant response rating ([7]; postemergence, 62 g ai/ha)","Plant response rating, Lambsquarters [7, 18]","Barnyardgrass plant response rating ([8]; postemergence, 62 g ai/ha)","Plant response rating, Barnyardgrass [8, 18]","Kochia plant response rating ([9]; postemergence, 62 g ai/ha)","Plant response rating, Kochia [9, 18]","Chickweed plant response rating ([10]; postemergence, 62 g ai/ha)","Plant response rating, Chickweed [10, 18]",further results
CCc1cc(-c2ccc(C(F)(F)F)cc2)nn1Cc1ccnc(C(F)(F)F)c1 [Compound 110],100,70,30,75,70,5,5,5,15,25,40,60,75,85,35,55,90,90,70,90,"Velvetleaf plant response rating ([3]; preemergence, 31 g ai/ha, visual rating, scale 0 to 100 (0 no effect, 100 complete control), 13 to 15 days): 50; Velvetleaf plant response rating ([3]; preemergence, 62 g ai/ha, scale 0 to 100 (0 no effect, 100 complete control), 13 to 15 days): 50; Plant response rating, Wheat [4, 15]: 5; Plant response rating, Corn [5, 17]: 25; Plant response rating (scale of 0 to 100 where 0 is no effect and 100 is complete control), Foxtail, Giant ([6]; Postemergence, 31 g ai/ha): 35; Plant response rating, Foxtail, Giant [6, 17]: 70; Plant response rating (scale of 0 to 100 where 0 is no effect and 100 is complete control), Lambsquarters ([7]; Postemergence, 31 g ai/ha): 40; Plant response rating, Lambsquarters [7, 17]: 98; Plant response rating (scale of 0 to 100 where 0 is no effect and 100 is complete control), Barnyardgrass ([8]; Postemergence, 31 g ai/ha): 20; Plant response rating, Barnyardgrass [8, 17]: 65; Plant response rating (scale of 0 to 100 where 0 is no effect and 100 is complete control), Kochia ([9]; Postemergence, 31 g ai/ha): 90; Plant response rating, Kochia [9, 17]: 90; Plant response rating (scale of 0 to 100 where 0 is no effect and 100 is complete control), Chickweed ([10]; Postemergence, 31 g ai/ha): 70; Plant response rating, Chickweed [10, 17]: 95"
CCc1cc(C(=O)NC2CC2)nn1Cc1ccnc(C(F)(F)F)c1 [Compound 76],100,80,20,100,100,0,5,5,10,20,20,65,75,85,5,15,90,90,80,80,"Velvetleaf plant response rating [3, 19]: 75; Plant response rating, Velvetleaf [3, 20]: 85; Plant response rating, Wheat [4, 15]: 5; Plant response rating (scale of 0 to 100 where 0 is no effect and 100 is complete control), Corn [5, 21]: 5; Plant response rating (scale of 0 to 100 where 0 is no effect and 100 is complete control), Foxtail, Giant ([6]; Postemergence, 31 g ai/ha): 20; Plant response rating, Foxtail, Giant [6, 17]: 85; Plant response rating (scale of 0 to 100 where 0 is no effect and 100 is complete control), Lambsquarters ([7]; Postemergence, 31 g ai/ha): 75; Plant response rating, Lambsquarters [7, 17]: 85; Plant response rating (scale of 0 to 100 where 0 is no effect and 100 is complete control), Morningglory [11, 21]: 75; Morningglory plant response rating ([11]; postemergence, 62 g ai/ha): 75; Plant response rating, Morningglory [11, 17]: 98; Plant response rating, Morningglory [11, 18]: 85; Plant response rating (scale of 0 to 100 where 0 is no effect and 100 is complete control), Barnyardgrass ([8]; Postemergence, 31 g ai/ha): 5; Plant response rating, Barnyardgrass [8, 17]: 60; Plant response rating (scale of 0 to 100 where 0 is no effect and 100 is complete control), Kochia ([9]; Postemergence, 31 g ai/ha): 75; Plant response rating, Kochia [9, 17]: 90; Plant response rating (scale of 0 to 100 where 0 is no effect and 100 is complete control), Chickweed ([10]; Postemergence, 31 g ai/ha): 50; Plant response rating, Chickweed [10, 17]: 85"
CCCNC(=O)c1cc(CC)n(Cc2ccnc(C(F)(F)F)c2)n1 [Compound 75],100,100,40,,100,,5,5,20,40,25,50,85,90,10,35,60,90,70,85,"Plant response rating, Velvetleaf ([3]; Preemergence, 16 g ai/ha, scale 0 to 100): 60; Velvetleaf plant response rating [3, 19]: 75; Plant response rating, Velvetleaf [3, 20]: 100; Plant response rating (scale of 0 to 100), Wheat ([4]; Postemergence, 16 g ai/ha): 0; Plant response rating (scale of 0 to 100), Corn ([5]; Postemergence, 16 g ai/ha): 0; Corn plant response rating ([5]; Postemergence, 31 g ai/ha): 5; Plant response rating (scale of 0 to 100), Foxtail, Giant ([6]; Postemergence, 16 g ai/ha): 15; Foxtail, Giant plant response rating ([6]; Postemergence, 31 g ai/ha): 20; Plant response rating (scale of 0 to 100), Lambsquarters ([7]; Postemergence, 16 g ai/ha): 70; Lambsquarters plant response rating ([7]; Postemergence, 31 g ai/ha): 70; Plant response rating (scale of 0 to 100), Morningglory ([11]; Postemergence, 16 g ai/ha): 25; Morningglory plant response rating ([11]; Postemergence, 31 g ai/ha): 75; Morningglory plant response rating ([11]; postemergence, 62 g ai/ha): 80; Plant response rating, Morningglory [11, 18]: 98; Plant response rating (scale of 0 to 100), Barnyardgrass ([8]; Postemergence, 16 g ai/ha): 5; Barnyardgrass plant response rating ([8]; Postemergence, 31 g ai/ha): 10; Plant response rating (scale of 0 to 100), Kochia ([9]; Postemergence, 16 g ai/ha): 30; Kochia plant response rating ([9]; Postemergence, 31 g ai/ha): 60; Plant response rating (scale of 0 to 100), Chickweed ([10]; Postemergence, 16 g ai/ha): 65; Chickweed plant response rating ([10]; Postemergence, 31 g ai/ha): 65"
